“And” between values parts separate entries of the source, which are not always exact repeats. Equal entries are not always repeated. Where two headings read alike, the source gives them in different places.
Experiments:
[1] = approximate; ref Sigma Aldrich catalogue; cited from earlier work
AF647‐labeled hCD1d = molecular target: T1, AF647‐labeled hCD1d (Homo sapiens, UniProt P15813+P61769); assay: Microscale thermophoresis (MST) binding assay
T1 construct: TEV protease cleavage site ENLYFQS (C); BirA biotinylation site (C); His7 (C); made in house; host or cells: TurboCHO cells (GenScript)
Source text: The experimental limitations of ITF, such as low instrument sensitivity, high sample consumption, signal overlap with some ligands, and low throughput (Fossum et al., [2023]), made it necessary to employ alternative, complementary assays to quantify detergent binding to hCD1d. […] MST measures the diffusion of fluorescent molecules in response to microscopic temperature gradients (Seidel et al., [2013]). When a protein forms a complex with a ligand, changes in hydrodynamic properties, charge, or solvation energy alter its thermophoretic behavior, allowing detection of binding events. To perform MST experiments, Alexa Fluor 647 (AF647) dye was covalently attached to the primary amines of hCD1d via standard N‐hydroxysuccinimide coupling chemistry (Anderson et al., [1964]). The concentration of AF647‐hCD1d was kept constant, and the change in MST signal was measured as a function of increasing detergent concentration (Figure S3). Like ITF, any lipid or detergent that destabilizes CD1 can also alter the MST signal since unfolding changes the protein's Stokes radius and its thermophoretic behavior. […] This is why we compare MST results with ITF and nanoDSF, as described below.
For MST, hCD1d was fluorescently labeled with AF647‐NHS Ester (Invitrogen #A20006). Briefly, a 10 mM stock of AF647‐NHS was prepared in anhydrous DMSO. Then, 100 μL of 50 μM hCD1d in 1X PBS pH 7.4 was mixed with 1 μL of 10 mM AF647‐NHS (1:2 molar ratio of protein: dye). The mixture was allowed to react for 1 h in the dark at 25°C. Unreacted dye was removed from the protein–dye conjugate by performing size exclusion chromatography in the dark with a Superdex 200 Increase 10/300 GL column at a flow rate of 0.5 mL/min in SEC buffer (100 mM NaCl, 20 mM sodium phosphate, pH 7.2). The degree of labeling was determined by a NanoDrop spectrophotometer at A647 nm (dye absorbance) and A280 nm (hCD1d absorbance). The degree of labeling was determined from the ratio of dye concentration to protein concentration. The degree of labeling was ~75%.
MST experiments were performed using a Monolith NT.115 instrument (NanoTemper Technologies) using Monolith standard capillaries and the red excitation laser setup. The following settings were applied for all MST experiments: excitation power: 30%–50%, MST power: medium, before MST time: 3 s, MST on time (IR laser): 20 seconds, and after MST time: 1 s. MST measurements were analyzed using the Monolith Affinity Analysis software v2.3 and exported for plotting in GraphPad Prism v10.1. Three replicates were performed, and data are presented as the mean ± standard deviation (n = 3).
MST measurements of 100 nM AF647‐hCD1d were acquired in the absence and presence of detergents in 1X PBS pH 7.4 at 25°C. Prior to data acquisition, hCD1d and detergent or lipid samples were incubated at 37°C overnight (~12 h) to simulate in vitro and in vivo loading conditions. […] For 18:1 LPC experiments: MST data of 100 nM AF647‐hCD1d were acquired in the absence and presence of 18:1 LPC in 1X PBS pH 7.4 at 25°C.

CD1d = system: CD1d; parameters: method as in Paletta et al., 2015; conditions: ref Paletta et al., 2015; cited from earlier work

T1 sequence (P61769+P15813 fused): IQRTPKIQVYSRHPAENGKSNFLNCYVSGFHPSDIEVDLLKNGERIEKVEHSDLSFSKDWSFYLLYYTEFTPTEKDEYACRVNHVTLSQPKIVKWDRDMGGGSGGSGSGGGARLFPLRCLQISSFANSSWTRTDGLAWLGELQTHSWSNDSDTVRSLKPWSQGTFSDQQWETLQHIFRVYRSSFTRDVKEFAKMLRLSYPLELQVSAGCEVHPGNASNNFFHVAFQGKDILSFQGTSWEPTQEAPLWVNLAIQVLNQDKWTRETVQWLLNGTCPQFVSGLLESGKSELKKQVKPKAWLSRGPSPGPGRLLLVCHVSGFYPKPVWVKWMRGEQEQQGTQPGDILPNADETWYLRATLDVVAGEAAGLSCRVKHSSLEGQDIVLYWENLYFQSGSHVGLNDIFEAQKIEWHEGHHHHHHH

Fnorm (rep 1-3) (AF647‐labeled hCD1d; 3.05176e-8 M detergent): 791.032 ‰ and 791.82 ‰ and 793.917 ‰ | Fnorm (rep 1-3) (AF647‐labeled hCD1d; 6.10352e-8 M detergent): 788.237 ‰ and 790.225 ‰ and 792.188 ‰ | Fnorm (rep 1-3) (AF647‐labeled hCD1d; 1.2207e-7 M detergent): 789.186 ‰ and 789.645 ‰ and 792.672 ‰ | Fnorm (rep 1-3) (AF647‐labeled hCD1d; 2.44141e-7 M detergent): 789.349 ‰ and 791.297 ‰ and 791.601 ‰ | Fnorm (rep 1-3) (AF647‐labeled hCD1d; 4.88281e-7 M detergent): 793.87 ‰ and 796.123 ‰ and 800.037 ‰ | Fnorm (rep 1-3) (AF647‐labeled hCD1d; 9.76563e-7 M detergent): 794.535 ‰ and 800.785 ‰ and 799.868 ‰ | Fnorm (rep 1-3) (AF647‐labeled hCD1d; 1.95313e-6 M detergent): 799.667 ‰ and 802.675 ‰ and 807.47 ‰ | Fnorm (rep 1-3) (AF647‐labeled hCD1d; 3.90625e-6 M detergent): 800.165 ‰ and 807.424 ‰ and 808.195 ‰ | Fnorm (rep 1-3) (AF647‐labeled hCD1d; 7.8125e-6 M detergent): 803.847 ‰ and 808.251 ‰ and 810.421 ‰ | Fnorm (rep 1-3) (AF647‐labeled hCD1d; 1.5625e-5 M detergent): 804.661 ‰ and 807.958 ‰ and 808.866 ‰ | Fnorm (rep 1-3) (AF647‐labeled hCD1d; 3.125e-5 M detergent): 803.048 ‰ and 809.197 ‰ and 809.196 ‰ | Fnorm (rep 1-3) (AF647‐labeled hCD1d; 6.25e-5 M detergent): 803.488 ‰ and 807.296 ‰ and 810.346 ‰ | Fnorm (rep 1-3) (AF647‐labeled hCD1d; 0.000125 M detergent): 802.129 ‰ and 807.585 ‰ and 809.032 ‰ | Fnorm (rep 1-3) (AF647‐labeled hCD1d; 0.00025 M detergent): 803.446 ‰ and 808.163 ‰ and 808.584 ‰ | Fnorm (rep 1-3) (AF647‐labeled hCD1d; 0.0005 M detergent): 803.236 ‰ and 807.226 ‰ and 808.719 ‰ | Fnorm (rep 1-3) (AF647‐labeled hCD1d; 0.001 M detergent, 100 nM AF647‐hCD1d): 804.928 ‰ and 807.69 ‰ and 809.093 ‰ | Kd (AF647‐labeled hCD1d; Figure 5B, detergent binding to hCD1d, read-out: MST - Kd (uM) average): 0.96 µM | Kd (AF647‐labeled hCD1d; detergent with 100 nM AF647‐labeled hCD1d, 25°C, apparent, read-out: K D (MST)): 0.9 ± 0.2 µM
Substance: Tyloxapol
CMC [1]: 18 µM | efficiency of loading α‐GalCer analogues onto CD1d (in words) (CD1d): more efficient than Tween 20 and Triton X‐100
